# According to US20260013504A1, “HERBICIDAL MIXTURE, HERBICIDAL COMPOSITION, METHOD, USE, AND KITS FOR CONTROLLING UNDESIRABLE VEGETATION” (ADAMA AGAN LTD., priority 2022, published 2026):
# Assays:
# Type in all cases: in vivo
# Solanum nigrum = assay: Pot experiment (glass greenhouse), soil treatment, control of Solanum nigrum (fresh weight, Colby)
# Description: (§1) Referring to an article of Colby, S. R. i.e., Calculation of the synergistic and antagonistic response of herbicide combinations.
# (§2) E0-E value is calculated to evaluate the combined effect of pyroxasulfone and the second herbicide selected from the group consisting of fluorochloridone, aclonifen, diflufenican and terbutryn on the selected weeds.
# (§3) In this Example, the herbicidal activity of treatments by a mixture of pyroxasulfone and the second herbicide selected from the group consisting of fluorochloridone, aclonifen, diflufenican and terbutryn for controlling Aegilops tauschii was investigated by a pot experiment. This Example was carried out in accordance with “NY/T 1155.4-2006 Guidelines for Indoor Bioassay Tests of Pesticides, Herbicides Part 4: Activity Determination Tests, Stem and Leaf Spray Method”. • Source of the agrochemicals tested were: • Pyroxasulfone: pyroxasulfone (850g/Kg, WG) from Adama Agan LTD. • Fluorochloridone: fluorochloridone (250 g/L, EC) from Adama Agan LTD. • Aclonifen: aclonifen (600 g/L, SC) from Adama Agan LTD. • Diflufenican: diflufenican (50g/Kg, WP) from Bayer. • Terbutryn: terbutryn (50g/Kg, SC) from Zhejiang Zhongshan Chemical Industry Group Co., Ltd. • Cultivation of test materials: The test soil was formed by mixing the 20 cm layer loam on the ground surface and the culture medium in a ratio of 3:1 as cultivation soil. Weeds were cultivated in an artificial climate chamber. The daytime and nighttime temperatures were set at 22° C. and 19° C., respectively, and the illumination was set at daytime: dark time 12h: 12h.
# (§4) A certain amount of Aegilops tauschii seeds were sown in a plastic pot with a diameter of 9 cm, covering with 1-2 mm soil, and putting them in an enamel dish filled with water. The bottom infiltration method was used to water them, the agrochemicals tested in this Example were applied on the second day after sowing Aegilops tauschii seeds.
# (§5) Spraying treatment: ASS-4 automatic control spraying system with a fan-shaped nozzle was used indoors to spray the agrochemicals, the running speed was adjusted based on nozzle pressure, flow rate, etc. to spray 50 mL of liquid of agrochemicals on the actual spray area of 1.1 m2 (equivalent to 30 liters per mu), arranging the plastic pots to be processed on the spraying table evenly, and spraying evenly. The spraying pressure was 0.35 MPa, and the flow rate of the fan-shaped nozzle was 800 mL/min, spraying in order from low dosage to high dosage. Each treatment was repeated 3 times. After spraying, the plastic pots were dried for one day, placed in an artificial climate chamber, and watered regularly to keep moist.
# (§6) Weed investigation method and time: after applying the agrochemicals, the symptoms of weed damage (such as growth inhibition, chlorosis, deformity, etc.) were recorded in detail. After 35 days, the fresh weight of aerial part of the weeds in each treatment was weighed, and the measured fresh weight inhibition rate and the measured fresh weight survival rate for each treatment were calculated according to the following equations: […]
# Example 6 was substantially conducted in the same as Example 1, except that (1) Solanum nigrum was used instead of Aegilops tauschii, (2) in “Cultivation of test materials” part, Solanum nigrum was cultivated in a glass greenhouse instead of an artificial climate chamber at a temperature of 25 to 33° C. with a natural illumination, and (3) in “Spraying treatment” part, after spraying and drying, the plastic pots were placed in a glass greenhouse instead of an artificial climate chamber.
# Lithospermum arvense = assay: Pot experiment, soil treatment, control of Lithospermum arvense (fresh weight, Colby)
# Description: as §1, §2, §3, §4, §5, §6
# Example 5 was conducted substantially the same way as Example 1, except that Lithospermum arvense was used instead of Aegilops tauschii.
# Aegilops tauschii = assay: Pot experiment, soil treatment, control of Aegilops tauschii (fresh weight, Colby); details: mixtures: both AIs at these rates, after 35 days
# Excerpt: as §1
# E0 is the theoretical fresh weight survival rate for the mixture of pyroxasulfone and the second herbicide selected from the group consisting of fluorochloridone, aclonifen, diflufenican and terbutryn;
# X is the measured fresh weight survival rate for pyroxasulfone used alone at the same dosage as that in the mixture;
# Y is the measured fresh weight survival rate for the second herbicide selected from the group consisting of fluorochloridone, aclonifen, diflufenican and terbutryn used alone at the same dosage as that in the mixture;
# E is the measured fresh weight survival rate for the mixture of pyroxasulfone and the second herbicide selected from the group consisting of fluorochloridone, aclonifen, diflufenican and terbutryn.
# as §2, §3, §4, §5, §6
# Bromus japonicus = assay: Pot experiment, soil treatment, control of Bromus japonicus (fresh weight, Colby); details: mixtures: both AIs at these rates, after 35 days
# Description: as §1, §2, §3, §4, §5, §6
# Example 3 was conducted in substantially the same way as Example 1, except that Bromus japonicus was used instead of Aegilops tauschii.
# Lolium multiflorum Lamk = assay: Pot experiment, soil treatment, control of Lolium multiflorum Lamk (fresh weight, Colby); details: mixtures: both AIs at these rates, after 35 days
# Description: as §1, §2, §3, §4, §5, §6
# Example 2 was conducted in substantially the same way as Example 1, except that Lolium multiflorum Lamk was used instead of Aegilops tauschii.
# Galium aparine = assay: Pot experiment, soil treatment, control of Galium aparine (fresh weight, Colby)
# Description: as §1, §2, §3, §4, §5, §6
# Example 4 was conducted substantially the same way as Example 1, except that Galium aparine was used instead of Aegilops tauschii.
# [1] = g ai/ha: pyroxasulfone 11.25, fluorochloridone 31.25, aclonifen 150, diflufenican 14.0625, terbutryn 140.625
# [2] = g ai/ha: pyroxasulfone 22.5, fluorochloridone 62.5, aclonifen 300, diflufenican 28.125, terbutryn 281.25
# [3] = g ai/ha: pyroxasulfone 45, fluorochloridone 125, aclonifen 600, diflufenican 56.25, terbutryn 562.5
# [4] = g ai/ha: pyroxasulfone 90, fluorochloridone 250, aclonifen 1200, diflufenican 112.5, terbutryn 1125
# [5] = g ai/ha: pyroxasulfone 180, fluorochloridone 500, aclonifen 2400, diflufenican 225, terbutryn 2250
# [6] = g ai/ha: pyroxasulfone 360, fluorochloridone 1000, aclonifen 4800, diflufenican 450, terbutryn 4500
smiles,measurement,setting,value
"O=C(Nc1ccc(F)cc1F)c1cccnc1Oc1cccc(C(F)(F)F)c1 [diflufenican, N-(2,4-difluorophenyl)-2-(3-(trifluoromethyl)phenoxy)-3-pyridinecarboxamide]",Measured fresh weight survival rate (%) - E,Solanum nigrum; 14.0625 g ai/ha,94.1%
same,Measured fresh weight survival rate (%) - E,Solanum nigrum; 28.125 g ai/ha,90.2%
same,Measured fresh weight survival rate (%) - E,Solanum nigrum; 56.25 g ai/ha,79.2%
same,Measured fresh weight survival rate (%) - E,Solanum nigrum; 112.5 g ai/ha,71.8%
same,Measured fresh weight survival rate (%) - E,Solanum nigrum; 225 g ai/ha,63.5%
same,inhibition at 14.0625 g/ha,"Solanum nigrum; Solanum nigrum, soil, 14.0625 g ai/ha, read-out: Measured fresh weight inhibition rate (%)",5.9%
same,inhibition at 28.125 g/ha,"Solanum nigrum; Solanum nigrum, soil, 28.125 g ai/ha, read-out: Measured fresh weight inhibition rate (%)",9.8%
same,inhibition at 56.25 g/ha,"Solanum nigrum; Solanum nigrum, soil, 56.25 g ai/ha, read-out: Measured fresh weight inhibition rate (%)",20.8%
same,inhibition at 112.5 g/ha,"Solanum nigrum; Solanum nigrum, soil, 112.5 g ai/ha, read-out: Measured fresh weight inhibition rate (%)",28.2%
same,inhibition at 225 g/ha,"Solanum nigrum; Solanum nigrum, soil, 225 g ai/ha, read-out: Measured fresh weight inhibition rate (%)",36.5%
same,Measured fresh weight survival rate (%) - E,Lithospermum arvense; 14.0625 g ai/ha,33.3%
same,Measured fresh weight survival rate (%) - E,Lithospermum arvense; 28.125 g ai/ha,17.4%
same,Measured fresh weight survival rate (%) - E,Lithospermum arvense; 56.25 g ai/ha,15.9%
same,Measured fresh weight survival rate (%) - E,Lithospermum arvense; 112.5 g ai/ha,1.4%
same,Measured fresh weight survival rate (%) - E,Lithospermum arvense; 225 g ai/ha,0.0%
same,inhibition at 14.0625 g/ha,"Lithospermum arvense; Buglossoides arvensis, soil, 14.0625 g ai/ha, read-out: Measured fresh weight inhibition rate (%)",66.7%
same,inhibition at 28.125 g/ha,"Lithospermum arvense; Buglossoides arvensis, soil, 28.125 g ai/ha, read-out: Measured fresh weight inhibition rate (%)",82.6%
same,inhibition at 56.25 g/ha,"Lithospermum arvense; Buglossoides arvensis, soil, 56.25 g ai/ha, read-out: Measured fresh weight inhibition rate (%)",84.1%
same,inhibition at 112.5 g/ha,"Lithospermum arvense; Buglossoides arvensis, soil, 112.5 g ai/ha, read-out: Measured fresh weight inhibition rate (%)",98.6%
same,inhibition at 225 g/ha,"Lithospermum arvense; Buglossoides arvensis, soil, 225 g ai/ha, read-out: Measured fresh weight inhibition rate (%)",100%
same,Measured fresh weight inhibition rate (%),Aegilops tauschii; [1],3.7%
same,Measured fresh weight survival rate (%) - E,Aegilops tauschii; [1],96.3%
same,Measured fresh weight inhibition rate (%),Aegilops tauschii; [2],6.7%
same,Measured fresh weight survival rate (%) - E,Aegilops tauschii; [2],93.3%
same,Measured fresh weight inhibition rate (%),Aegilops tauschii; [3],4.3%
same,Measured fresh weight survival rate (%) - E,Aegilops tauschii; [3],95.7%
same,Measured fresh weight inhibition rate (%),Aegilops tauschii; [4],6.7%
same,Measured fresh weight survival rate (%) - E,Aegilops tauschii; [4],93.3%
same,Measured fresh weight inhibition rate (%),Aegilops tauschii; [5],10.4%
same,Measured fresh weight survival rate (%) - E,Aegilops tauschii; [5],89.6%
same,Measured fresh weight inhibition rate (%),Aegilops tauschii; [6],37.2%
same,Measured fresh weight survival rate (%) - E,Aegilops tauschii; [6],62.8%
same,Measured fresh weight inhibition rate (%),Bromus japonicus; [1],59.8%
same,Measured fresh weight survival rate (%) - E,Bromus japonicus; [1],40.2%
same,Measured fresh weight inhibition rate (%),Bromus japonicus; [2],73.2%
same,Measured fresh weight survival rate (%) - E,Bromus japonicus; [2],26.8%
same,Measured fresh weight inhibition rate (%),Bromus japonicus; [3],80.4%
same,Measured fresh weight survival rate (%) - E,Bromus japonicus; [3],19.6%
same,Measured fresh weight inhibition rate (%),Bromus japonicus; [4],95.9%
same,Measured fresh weight survival rate (%) - E,Bromus japonicus; [4],4.1%
same,Measured fresh weight inhibition rate (%),Bromus japonicus; [5],100.0%
same,Measured fresh weight survival rate (%) - E,Bromus japonicus; [5],0.0%
same,Measured fresh weight inhibition rate (%),Lolium multiflorum Lamk; [1],87.0%
same,Measured fresh weight survival rate (%) - E,Lolium multiflorum Lamk; [1],13.0%
same,Measured fresh weight inhibition rate (%),Lolium multiflorum Lamk; [2],88.0%
same,Measured fresh weight survival rate (%) - E,Lolium multiflorum Lamk; [2],12.0%
same,Measured fresh weight inhibition rate (%),Lolium multiflorum Lamk; [3],93.2%
same,Measured fresh weight survival rate (%) - E,Lolium multiflorum Lamk; [3],6.8%
same,Measured fresh weight inhibition rate (%),Lolium multiflorum Lamk; [4],99.5%
same,Measured fresh weight survival rate (%) - E,Lolium multiflorum Lamk; [4],0.5%
same,Measured fresh weight inhibition rate (%),Lolium multiflorum Lamk; [5],100.0%
same,Measured fresh weight survival rate (%) - E,Lolium multiflorum Lamk; [5],0.0%
same,Measured fresh weight inhibition rate (%),Lolium multiflorum Lamk; [6],100.0%
same,Measured fresh weight survival rate (%) - E,Lolium multiflorum Lamk; [6],0.0%
same,Measured fresh weight survival rate (%) - E,Galium aparine; 14.0625 g ai/ha,38.4%
same,Measured fresh weight survival rate (%) - E,Galium aparine; 28.125 g ai/ha,27.4%
same,Measured fresh weight survival rate (%) - E,Galium aparine; 56.25 g ai/ha,26.0%
same,Measured fresh weight survival rate (%) - E,Galium aparine; 112.5 g ai/ha,15.1%
same,Measured fresh weight survival rate (%) - E,Galium aparine; 225 g ai/ha,1.4%
same,inhibition at 14.0625 g/ha,"Galium aparine; Galium aparine, soil, 14.0625 g ai/ha, read-out: Measured fresh weight inhibition rate (%)",61.6%
same,inhibition at 28.125 g/ha,"Galium aparine; Galium aparine, soil, 28.125 g ai/ha, read-out: Measured fresh weight inhibition rate (%)",72.6%
same,inhibition at 56.25 g/ha,"Galium aparine; Galium aparine, soil, 56.25 g ai/ha, read-out: Measured fresh weight inhibition rate (%)",74%
same,inhibition at 112.5 g/ha,"Galium aparine; Galium aparine, soil, 112.5 g ai/ha, read-out: Measured fresh weight inhibition rate (%)",84.9%
same,inhibition at 225 g/ha,"Galium aparine; Galium aparine, soil, 225 g ai/ha, read-out: Measured fresh weight inhibition rate (%)",98.6%
